From patent US9796711B2, “Substituted pyrazolo[3,4-b]pyridin-6-carboxylic acids and method of use” (AbbVie S.àr.l., priority 2015, dated 2017)

Experiments:
ΔF508-CFTR [1] = target: T1, ΔF508-CFTR (Homo sapiens, UniProt P13569, DEL508-508); experiment: CFTR cell surface levels using HRP-tagged ΔF508-CFTR expressing CFBE cells, intrinsic corrector capacity; format: cell-based
T1 construct: host or cells: CFBE41o-, doxycycline-inducible
Outline: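 Here the cells express ΔF508-CFTR with horseradish peroxidase inserted in extracellular loop 4, so only rescued channel at the surface gives luminescent signal. Compounds act on their own, 20 h at the reduced temperature of 33 °C; values are percent activity relative to DMSO and a 3 μM corrector.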

ΔF508-CFTR [2] = target: T1, ΔF508-CFTR; experiment: CFTR cell surface levels using HRP-tagged ΔF508-CFTR expressing CFBE cells, in the presence of a co-corrector; format: cell-based
Outline: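 Cells were seeded with 0.5 μg/mL doxycycline and held 68 h at 37 °C. Test compounds plus 3 μM co-corrector (final 0.1% DMSO) were then added for 20 h at 33 °C. Washed cells received HRP substrate, and luminescence was normalized between DMSO and 3 μM co-corrector controls.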

[3] = HRP-tagged ΔF508-CFTR expressing CFBE cells, intrinsic corrector capacity (no co-corrector), 33° C., 20 hours
[4] = HRP-tagged ΔF508-CFTR expressing CFBE cells, in the presence of 3 μM co-corrector
[5] = HRP-tagged ΔF508-CFTR expressing CFBE cells, intrinsic corrector capacity (no co-corrector), 33° C., 20 hours, read-out: EC50
[6] = HRP-tagged ΔF508-CFTR expressing CFBE cells, in the presence of 3 μM co-corrector, read-out: EC50

T1 sequence (P13569 with tags, fused parts or gaps DEL508-508): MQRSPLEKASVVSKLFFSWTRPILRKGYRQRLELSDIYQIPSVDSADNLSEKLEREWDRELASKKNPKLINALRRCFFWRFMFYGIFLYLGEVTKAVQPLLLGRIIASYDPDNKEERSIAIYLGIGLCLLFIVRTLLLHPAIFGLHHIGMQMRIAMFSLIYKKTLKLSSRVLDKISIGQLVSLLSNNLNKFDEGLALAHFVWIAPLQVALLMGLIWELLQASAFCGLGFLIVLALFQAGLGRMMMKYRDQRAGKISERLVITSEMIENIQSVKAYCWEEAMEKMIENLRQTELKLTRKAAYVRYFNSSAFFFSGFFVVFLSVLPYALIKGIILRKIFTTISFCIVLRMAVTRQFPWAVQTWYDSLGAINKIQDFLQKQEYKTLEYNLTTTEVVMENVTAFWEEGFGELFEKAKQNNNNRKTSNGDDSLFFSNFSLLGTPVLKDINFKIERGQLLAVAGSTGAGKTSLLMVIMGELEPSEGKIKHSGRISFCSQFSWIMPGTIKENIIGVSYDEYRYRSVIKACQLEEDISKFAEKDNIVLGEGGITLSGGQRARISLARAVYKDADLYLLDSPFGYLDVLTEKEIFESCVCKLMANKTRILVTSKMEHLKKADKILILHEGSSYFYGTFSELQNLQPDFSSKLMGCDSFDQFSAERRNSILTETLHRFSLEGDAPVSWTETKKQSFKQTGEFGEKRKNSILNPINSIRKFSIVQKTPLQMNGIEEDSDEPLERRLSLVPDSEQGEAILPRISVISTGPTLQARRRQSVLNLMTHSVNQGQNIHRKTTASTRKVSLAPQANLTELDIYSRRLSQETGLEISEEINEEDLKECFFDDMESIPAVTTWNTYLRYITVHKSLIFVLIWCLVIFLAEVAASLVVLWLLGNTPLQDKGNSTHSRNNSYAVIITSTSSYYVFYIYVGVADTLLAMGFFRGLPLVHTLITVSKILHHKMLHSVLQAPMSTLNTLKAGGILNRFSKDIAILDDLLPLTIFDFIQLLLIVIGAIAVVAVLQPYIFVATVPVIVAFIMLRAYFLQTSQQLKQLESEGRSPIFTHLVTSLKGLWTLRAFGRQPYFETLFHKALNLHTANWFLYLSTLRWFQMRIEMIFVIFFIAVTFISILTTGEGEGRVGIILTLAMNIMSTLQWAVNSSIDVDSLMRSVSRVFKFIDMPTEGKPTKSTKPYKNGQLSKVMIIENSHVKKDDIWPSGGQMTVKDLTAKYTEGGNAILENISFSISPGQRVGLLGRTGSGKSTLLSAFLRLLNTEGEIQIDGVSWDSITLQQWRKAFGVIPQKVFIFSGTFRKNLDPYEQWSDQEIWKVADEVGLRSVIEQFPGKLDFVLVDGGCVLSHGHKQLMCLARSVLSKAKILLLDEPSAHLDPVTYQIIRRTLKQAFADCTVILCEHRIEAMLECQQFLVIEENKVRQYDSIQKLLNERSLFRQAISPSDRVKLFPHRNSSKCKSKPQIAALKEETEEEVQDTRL

Compound | EC50 (ΔF508-CFTR [1]) | % Activation (ΔF508-CFTR [1]; [3]) | EC50 (ΔF508-CFTR [2]) | % Activation (ΔF508-CFTR [2]; [4]) | EC50 (ΔF508-CFTR [1]; [5]) | EC50 (ΔF508-CFTR [2]; [6]) | % Activation (ΔF508-CFTR [1]; HRP-tagged ΔF508-CFTR CFBE41o- cells, compounds alone (intrinsic corrector capacity), 20 hours at 33° C., positive control 3 μM corrector)
CC(C)(C)OC(=O)NC[C@@H]1CCN(c2cc(C(=O)O)nc3c2c(C2CCC2)nn3-c2ccccc2)C1 [compound 671, 4-[(3S)-3-{[(tert-butoxycarbonyl)amino]methyl}pyrrolidin-1-yl]-3-cyclobutyl-1-phenyl-1H-pyrazolo[3,4-b]pyridine-6-carboxylic acid] | 1610 nM | 190.1% | 943 nM | 357.4% | – | – | –
CC(C)(C)OC(=O)NC[C@H]1CCN(c2cc(C(=O)O)nc3c2c(C2CCC2)nn3-c2ccccc2)C1 [compound 672, 4-[(3R)-3-{[(tert-butoxycarbonyl)amino]methyl}pyrrolidin-1-yl]-3-cyclobutyl-1-phenyl-1H-pyrazolo[3,4-b]pyridine-6-carboxylic acid] | 748 nM | 141.6% | 553 nM | 343.15% | – | – | –
CN(C[C@@H]1CCN(c2cc(C(=O)O)nc3c2c(C2CCC2)nn3-c2ccccc2)C1)C(=O)OC(C)(C)C [compound 674, 4-[(3R)-3-{[(tert-butoxycarbonyl)(methyl)amino]methyl}pyrrolidin-1-yl]-3-cyclobutyl-1-phenyl-1H-pyrazolo[3,4-b]pyridine-6-carboxylic acid] | – | 158.5% | – | 323.85% | 521 nM | 380 nM | –
CN(C[C@H]1CCN(c2cc(C(=O)O)nc3c2c(C2CCC2)nn3-c2ccccc2)C1)C(=O)OC(C)(C)C [compound 675, 4-[(3S)-3-{[(tert-butoxycarbonyl)(methyl)amino]methyl}pyrrolidin-1-yl]-3-cyclobutyl-1-phenyl-1H-pyrazolo[3,4-b]pyridine-6-carboxylic acid] | – | 118.8% | – | 303.65% | 659 nM | 1050 nM | –
CNC[C@@H]1CCN(c2cc(C(=O)O)nc3c2c(C2CCC2)nn3-c2ccccc2)C1 [compound 676, 3-cyclobutyl-4-{(3S)-3-[(methylamino)methyl]pyrrolidin-1-yl}-1-phenyl-1H-pyrazolo[3,4-b]pyridine-6-carboxylic acid] | – | 35.03% | – | 164.55% | 5000 nM | 892 nM | –
COCC1CCN(c2cc(C(=O)O)nc3c2c(C(C)C)nn3-c2cc(C)nc(C)c2)CC1 [compound 677, 1-(2,6-dimethylpyridin-4-yl)-4-[4-(methoxymethyl)piperidin-1-yl]-3-(propan-2-yl)-1H-pyrazolo[3,4-b]pyridine-6-carboxylic acid] | – | 67.38% | – | 260.45% | 1570 nM | 6550 nM | –
COCC1CCN(c2cc(C(=O)O)nc3c2c(C2CCC2)nn3-c2ccnc(OC)c2)CC1 [compound 678, 3-cyclobutyl-4-[4-(methoxymethyl)piperidin-1-yl]-1-(2-methoxypyridin-4-yl)-1H-pyrazolo[3,4-b]pyridine-6-carboxylic acid] | – | 181.5% | – | 373.3% | 230 nM | 91.8 nM | –
O=C(O)c1cc(N2CCN(CC3CCCO3)CC2)c2c(C3CCC3)nn(-c3ccccc3)c2n1 (stereo not shown) [compound 681, 3-cyclobutyl-4-{4-[(oxolan-2-yl)methyl]piperazin-1-yl}-1-phenyl-1H-pyrazolo[3,4-b]pyridine-6-carboxylic acid] | – | 220.95% | – | 373.05% | 408 nM | 197 nM | –
COCC(C)N1CCN(c2cc(C(=O)O)nc3c2c(C2CCC2)nn3-c2ccccc2)CC1 (stereo not shown) [compound 682, 3-cyclobutyl-4-[4-(1-methoxypropan-2-yl)piperazin-1-yl]-1-phenyl-1H-pyrazolo[3,4-b]pyridine-6-carboxylic acid] | – | 172.9% | – | 368.9% | 180 nM | 116 nM | –
O=C(O)c1cc(N2CCN(CC3OCCO3)CC2)c2c(C3CCC3)nn(-c3ccccc3)c2n1 [compound 684, 3-cyclobutyl-4-{4-[(1,3-dioxolan-2-yl)methyl]piperazin-1-yl}-1-phenyl-1H-pyrazolo[3,4-b]pyridine-6-carboxylic acid] | – | 230.2% | – | 384.65% | 380 nM | 236 nM | –
COCCOC1CCN(c2cc(C(=O)O)nc3c2c(C2CCC2)nn3-c2ccccc2)CC1 [compound 685, 3-cyclobutyl-4-[4-(2-methoxyethoxy)piperidin-1-yl]-1-phenyl-1H-pyrazolo[3,4-b]pyridine-6-carboxylic acid] | – | 260.5% | – | 510.3% | 164 nM | 245 nM | –
O=C(O)c1cc(N2CCC(CN3CCCCC3)CC2)c2c(C3CCC3)nn(-c3ccccc3)c2n1 [compound 686, 3-cyclobutyl-1-phenyl-4-{4-[(piperidin-1-yl)methyl]piperidin-1-yl}-1H-pyrazolo[3,4-b]pyridine-6-carboxylic acid] | – | 240.4% | – | 431.1% | 1670 nM | 237 nM | –
CC1CN(C2CCN(c3cc(C(=O)O)nc4c3c(C3CCC3)nn4-c3ccccc3)CC2)CC(C)O1 (stereo not shown) [compound 688, 3-cyclobutyl-4-[4-(2,6-dimethylmorpholin-4-yl)piperidin-1-yl]-1-phenyl-1H-pyrazolo[3,4-b]pyridine-6-carboxylic acid] | – | 322.5% | – | 532.6% | 247 nM | 247 nM | –
CCN(CC)C1CCN(c2cc(C(=O)O)nc3c2c(C2CCC2)nn3-c2ccccc2)CC1 [compound 689, 3-cyclobutyl-4-[4-(diethylamino)piperidin-1-yl]-1-phenyl-1H-pyrazolo[3,4-b]pyridine-6-carboxylic acid] | – | 182.7% | – | 329% | 1570 nM | 803 nM | –
CN(CCCN(C)C1CCCCC1)c1cc(C(=O)O)nc2c1c(C1CCC1)nn2-c1ccccc1 [compound 690, 3-cyclobutyl-4-[{3-[cyclohexyl(methyl)amino]propyl}(methyl)amino]-1-phenyl-1H-pyrazolo[3,4-b]pyridine-6-carboxylic acid] | – | 136.1% | – | 318.25% | 1670 nM | 2760 nM | –
CC(C)CN1C[C@@H]2CN(c3cc(C(=O)O)nc4c3c(C3CCC3)nn4-c3ccccc3)C[C@@H]2C1 [compound 692, 3-cyclobutyl-4-[(3aR,6aS)-5-(2-methylpropyl)hexahydropyrrolo[3,4-c]pyrrol-2(1H)-yl]-1-phenyl-1H-pyrazolo[3,4-b]pyridine-6-carboxylic acid] | – | 208.1% | – | 381.4% | 1670 nM | 931 nM | –
O=C(O)c1cc(N2CCC(N3CCCCC3)CC2)c2c(C3CCC3)nn(-c3ccc(F)cc3)c2n1 [compound 693, 4-([1,4′-bipiperidin]-1′-yl)-3-cyclobutyl-1-(4-fluorophenyl)-1H-pyrazolo[3,4-b]pyridine-6-carboxylic acid] | – | 185.9% | – | 392.45% | 1270 nM | 325 nM | –
COCCN1CCN(C2CCN(c3cc(C(=O)O)nc4c3c(C3CCC3)nn4-c3ccccc3)CC2)CC1 [compound 694, 3-cyclobutyl-4-{4-[4-(2-methoxyethyl)piperazin-1-yl]piperidin-1-yl}-1-phenyl-1H-pyrazolo[3,4-b]pyridine-6-carboxylic acid] | – | 177.4% | – | 421.9% | 487 nM | 535 nM | –
CCOCCN1CCN(C2CCN(c3cc(C(=O)O)nc4c3c(C(C)C)nn4-c3ccc(F)cc3)CC2)CC1 [compound 745, 4-{4-[4-(2-ethoxyethyl)piperazin-1-yl]piperidin-1-yl}-1-(4-fluorophenyl)-3-(propan-2-yl)-1H-pyrazolo[3,4-b]pyridine-6-carboxylic acid] | – | 239.3% | – | 457.5% | 573 nM | 191 nM | –
CC(C)c1nn(-c2ccc(F)cc2)c2nc(C(=O)O)cc(N3CCC(N4CCN(C)CC4)CC3)c12 [compound 753, 1-(4-fluorophenyl)-4-[4-(4-methylpiperazin-1-yl)piperidin-1-yl]-3-(propan-2-yl)-1H-pyrazolo[3,4-b]pyridine-6-carboxylic acid] | – | 215% | – | 377.6% | 1030 nM | 301 nM | –
CN1CCN(C2CCN(c3cc(C(=O)O)nc4c3c(C3CCC3)nn4-c3ccccc3)CC2)CC1 [compound 757, 3-cyclobutyl-4-[4-(4-methylpiperazin-1-yl)piperidin-1-yl]-1-phenyl-1H-pyrazolo[3,4-b]pyridine-6-carboxylic acid] | – | 208.45% | – | 489.6% | 319 nM | 402 nM | –
Cc1c(C(=O)O)nc2c(c(C(C)C)nn2-c2ccc(F)cc2)c1N1CCC(N2CCOCC2)CC1 [compound 763, 1-(4-fluorophenyl)-5-methyl-4-[4-(morpholin-4-yl)piperidin-1-yl]-3-(propan-2-yl)-1H-pyrazolo[3,4-b]pyridine-6-carboxylic acid] | 1630 nM | – | 1670 nM | 276.3% | – | – | 161.25%
